Patent publication US9844536B2, “3-(1H-imidazo[4,5-C]pyridin-2-yl)-1H-pyrazolo[3,4-C]pyridine and therapeutic uses thereof” (Samumed, LLC, priority 2014, dated 2017)

Assays:
[1] = system: LL29 cells; assay: Inhibition of the fibrotic process (αSMA staining) in TGF-β1 treated primary human fibroblasts from IPF patients; type: cell-based; settings: Fibroblast, 96 h, TGF-β1 20 ng/mL, 4 days, dose-response 10 μM to 1.87 nM, read-out: Inhibition of fibrosis EC50
Source text: The above synthesized compounds were screened using primary human fibroblasts (derived from IPF patients) treated with TGF-β1 to determine their ability to inhibit the fibrotic process.
Primary human fibroblasts derived from IPF patients (LL29 cells) [^1Xiaoqiu Liu, et. al., “Fibrotic Lung Fibroblasts Show Blunted Inhibition by cAMP Due to Deficient cAMP Response Element-Binding Protein Phosphorylation”, Journal of Pharmacology and Experimental Therapeutics (2005), 315(2), 678-687; ^2Watts, K. L., et. al., “RhoA signaling modulates cyclin D1 expression in human lung fibroblasts; implications for idiopathic pulmonary fibrosis”, Respiratory Research (2006), 7(1), 88] were obtained from American Type Culture Collection (ATCC) and expanded in F12 medium supplemented with 15% Fetal Bovine Serum and Penicillin/Streptomycin.
Each compound was dissolved in DMSO as a 10 mM stock and used to prepare compound source plates. Serial dilution (1:2, 11-point dose-response curves from 10 μM to 1.87 nM) and compound transfer was performed using the ECHO 550 (Labcyte, Sunnyvale, Calif.) into 384-well clear bottom assay plates (Greiner Bio-One) with appropriate DMSO backfill for a final DMSO concentration of 0.1%. LL29 cells were plated at 1,500 cells/well in 80 μl/well F12 medium supplemented with 1% Fetal Bovine Serum. One hour after addition of the cells, TGF-β1 (Peprotech; 20 ng/mL) was added to the plates to induce fibrosis (ref. 1 and 2 above). Wells treated with TGF-β1 and containing DMSO were used as controls. Cells were incubated at 37° C. and 5% CO2 for 4 days. Following incubation for 4 days, SYTOX green nucleic acid stain (Life Technologies [Thermo Fisher Scientific]) was added to the wells at a final concentration of 1 uM and incubated at room temperature for 30 min. Cells were then fixed using 4% formaldehyde (Electron Microscopy Sciences), washed 3 times with PBS followed by blocking and permeabilization using 3% Bovine Serum Albumin (BSA; Sigma) and 0.3% Triton X-100 (Sigma) in PBS. Cells were then stained with antibody specific to α-smooth muscle actin (αSMA; Abcam) (ref. 1 and 2 above) in 3% Bovine Serum Albumin (BSA; Sigma) and 0.3% Triton X-100 (Sigma) in PBS, and incubated overnight at 4° C. Cells were then washed 3 times with PBS, followed by incubation with Alexa Flor-647 conjugated secondary antibody (Life Technologies [Thermo Fisher Scientific]) and DAPI at room temperature for 1 hour. Cells were then washed 3 times with PBS and plates were sealed for imaging. αSMA staining was imaged by excitation at 630 nm and emission at 665 nm and quantified using the Compartmental Analysis program on the CellInsight CX5 (Thermo Scientific). Dead or apoptotic cells were excluded from analysis based on positive SYTOX green staining. % of total cells positive for αSMA were counted in each well and normalized to the average of 11 wells treated with TGF-31 on the same plate using Dotmatics' Studies Software. The normalized averages (fold change over untreated) of 3 replicate wells for each compound concentration were used to create dose-responses curves and EC50 values were calculated using non-linear regression curve fit in the Dotmatics' Studies Software. The EC50 values are reported.

[2] = system: Wnt pathway (Sp5-Luc reporter, SW480 cells); assay: Sp5-Luc reporter gene screening assay for Wnt activity in SW480 colon carcinoma cells; type: cell-based; settings: Homo sapiens
Source text: The screening assay for Wnt activity is described as follows. Reporter cell lines can be generated by stably transducing cancer cell lines (e.g., colon cancer) or primary cells (e.g., IEC-6 intestinal cells) with a lentiviral construct that includes a Wnt-responsive promoter driving expression of the firefly luciferase gene.
SW480 colon carcinoma cells were transduced with a lentiviral vector expressing luciferase with a human Sp5 promoter consisting of a sequence of eight TCF/LEF binding sites. SW480 cells stably expressing the Sp5-Luc reporter gene and a hygromycin resistance gene were selected by treatment with 150 μg/ml of hygromycin for 7 days. These stably transduced SW480 cells were expanded in cell culture and used for all further screening activities. For Sp5-Luc reporter gene assays, the cells were plated at 10,000 cells/well in 96-well plates with growth medium containing 10% fetal calf serum and incubated overnight at 37° C. and 5% CO2. Each compound was dissolved in DMSO as a 10 mM stock in standard j-vials and used to prepare compound source plates in dose-response format with 3-fold serial dilutions and a 10 mM top concentration. Compound transfer from serially diluted source plates to assay plates containing the cells was accomplished using a pintool (Multimek 96, Beckman equipped with V&P Scientific FP1S50H pins) based liquid handling protocol. This protocol used a slotted pin to transfer 50 nl of compound from a source plate well to an assay plate well containing 50 μl of cells in growth medium. […] Control wells received 50 nl of DMSO treatment for normalization and calculating IC50 values. The treated cells were incubated at 37° C. and 5% CO2 for an additional forty-two hours. Following incubation, the growth medium was removed and 50 μl of BrightGlo luminescence reagent (Promega) was added to each well of the 96-well assay plates. The plates were placed on an orbital shaker for 5 min and then luminescence was quantified on the Victor3 (Perkin Elmer) plate reader. Readings were normalized to DMSO only treated cells, and normalized activities were utilized for IC50 calculations using the dose-response log (inhibitor) vs. response-variable slope (four parameters) nonlinear regression feature available in GraphPad Prism 5.0 or 6.0.

SMILES	IC50 [2] [nM]	EC50 [1] [nM]
Fc1cccc(-c2nccc3[nH]c(-c4n[nH]c5cnc(C6CCNCC6)cc45)nc23)c1 [Compound 937, 3-(4-(3-Fluorophenyl)-1H-imidazo[4,5-c]pyridin-2-yl)-5-(piperidin-4-yl)-1H-pyrazolo[3,4-c]pyridine]	> 10000	2610
CN1CCN(c2nccc3[nH]c(-c4n[nH]c5cnc(-c6cncc(CN7CCCCC7)c6)cc45)nc23)CC1 [Compound 223, 3-(4-(4-Methylpiperazin-1-yl)-1H-imidazo[4,5-c]pyridin-2-yl)-5-(5-(piperidin-1-ylmethyl)pyridin-3-yl)-1H-pyrazolo[3,4-c]pyridine]	> 10000	≥ 9990
CN1CCN(c2nccc3[nH]c(-c4n[nH]c5cnc(-c6cncc(NC(=O)C7CCCC7)c6)cc45)nc23)CC1 [Compound 229, N-(5-(3-(4-(4-Methylpiperazin-1-yl)-1H-imidazo[4,5-c]pyridin-2-yl)-1H-pyrazolo[3,4-c]pyridin-5-yl)pyridin-3-yl)cyclopentanecarboxamide]	> 10000	≥ 9990
CN(C)Cc1cncc(-c2cc3c(-c4nc5c(-c6cccs6)nccc5[nH]4)n[nH]c3cn2)c1 [Compound 325, N,N-Dimethyl-1-(5-(3-(4-(thiophen-2-yl)-1H-imidazo[4,5-c]pyridin-2-yl)-1H-pyrazolo[3,4-c]pyridin-5-yl)pyridin-3-yl)methanamine]	> 10000	≤ 9
O=C(Cc1ccccc1)Nc1cncc(-c2cc3c(-c4nc5cnccc5[nH]4)n[nH]c3cn2)c1 [Compound 244, N-(5-(3-(1H-Imidazo[4,5-c]pyridin-2-yl)-1H-pyrazolo[3,4-c]pyridin-5-yl)pyridin-3-yl)-2-phenylacetamide]	1300	≥ 9990
CC(=O)c1ccc(-c2nccc3[nH]c(-c4n[nH]c5cnc(-c6cncc(NC(=O)C7CCCCC7)c6)cc45)nc23)s1 [Compound 412, N-(5-(3-(4-(5-Acetylthiophen-2-yl)-1H-imidazo[4,5-c]pyridin-2-yl)-1H-pyrazolo[3,4-c]pyridin-5-yl)pyridin-3-yl)cyclohexanecarboxamide]	> 10000	≤ 9
CC(=O)c1ccc(-c2nccc3[nH]c(-c4n[nH]c5cnc(-c6cncc(NC(=O)Cc7ccccc7)c6)cc45)nc23)s1 [Compound 400, N-(5-(3-(4-(5-Acetylthiophen-2-yl)-1H-imidazo[4,5-c]pyridin-2-yl)-1H-pyrazolo[3,4-c]pyridin-5-yl)pyridin-3-yl)-2-phenylacetamide]	> 10000	≤ 9
CC(C)CC(=O)Nc1cncc(-c2cc3c(-c4nc5c(-c6cc(F)cc(OCCN7CCCC7)c6)nccc5[nH]4)n[nH]c3cn2)c1 [Compound 1306, N-(5-(3-(4-(3-Fluoro-5-(2-(pyrrolidin-1-yl)ethoxy)phenyl)-1H-imidazo[4,5-c]pyridin-2-yl)-1H-pyrazolo[3,4-c]pyridin-5-yl)pyridin-3-yl)-3-methylbutanamide]	4220	

Now those with a lower IC50 [2], led by results:

IC50 [2] [nM]	SMILES	EC50 [1] [nM]
745	CN1CCN(c2nccc3[nH]c(-c4n[nH]c5cnc(-c6cncnc6)cc45)nc23)CC1 [Compound 234, 3-(4-(4-Methylpiperazin-1-yl)-1H-imidazo[4,5-c]pyridin-2-yl)-5-(pyrimidin-5-yl)-1H-pyrazolo[3,4-c]pyridine]	1380
636	O=C(Nc1cncc(-c2cc3c(-c4nc5c(N6CCCCC6)nccc5[nH]4)n[nH]c3cn2)c1)C1CC1 [Compound 175, N-(5-(3-(4-(Piperidin-1-yl)-1H-imidazo[4,5-c]pyridin-2-yl)-1H-pyrazolo[3,4-c]pyridin-5-yl)pyridin-3-yl)cyclopropanecarboxamide]	≤ 9
135	CC(C)CC(=O)Nc1cncc(-c2cc3c(-c4nc5c(-c6cc(O)cc(F)c6)nccc5[nH]4)n[nH]c3cn2)c1 [Compound 1350, N-(5-(3-(4-(3-Fluoro-5-hydroxyphenyl)-1H-imidazo[4,5-c]pyridin-2-yl)-1H-pyrazolo[3,4-c]pyridin-5-yl)pyridin-3-yl)-3-methylbutanamide]	135
116	c1ccc(CNCc2cncc(-c3cc4c(-c5nc6c(-c7ccsc7)nccc6[nH]5)n[nH]c4cn3)c2)cc1 [Compound 283, N-Benzyl-1-(5-(3-(4-(thiophen-3-yl)-1H-imidazo[4,5-c]pyridin-2-yl)-1H-pyrazolo[3,4-c]pyridin-5-yl)pyridin-3-yl)methanamine]	≤ 9
66.5	c1cncc(-c2cc3c(-c4nc5cnccc5[nH]4)n[nH]c3cn2)c1 [Compound 238, 3-(1H-Imidazo[4,5-c]pyridin-2-yl)-5-(pyridin-3-yl)-1H-pyrazolo[3,4-c]pyridine]	≥ 9990
41.3	CC(C)(C)C(=O)Nc1cncc(-c2cc3c(-c4nc5c(-c6ccsc6)nccc5[nH]4)n[nH]c3cn2)c1 [Compound 268, N-(5-(3-(4-(Thiophen-3-yl)-1H-imidazo[4,5-c]pyridin-2-yl)-1H-pyrazolo[3,4-c]pyridin-5-yl)pyridin-3-yl)pivalamide]	≥ 9990
38	CN(C)CC(=O)Nc1cncc(-c2cc3c(-c4nc5c(-c6cccc(F)c6)nccc5[nH]4)n[nH]c3cn2)c1 [Compound 1437, 2-(Dimethylamino)-N-(5-(3-(4-(3-fluorophenyl)-1H-imidazo[4,5-c]pyridin-2-yl)-1H-pyrazolo[3,4-c]pyridin-5-yl)pyridin-3-yl)acetamide]	342
24.6	Cc1ccc(-c2nccc3[nH]c(-c4n[nH]c5cnc(-c6cncc(NC(=O)C(C)(C)C)c6)cc45)nc23)s1 [Compound 372, N-(5-(3-(4-(5-Methylthiophen-2-yl)-1H-imidazo[4,5-c]pyridin-2-yl)-1H-pyrazolo[3,4-c]pyridin-5-yl)pyridin-3-yl)pivalamide]	1080
15.2	FC1(F)CCN(Cc2cncc(-c3cc4c(-c5nc6c(-c7cccs7)nccc6[nH]5)n[nH]c4cn3)c2)C1 [Compound 337, 5-(5-((3,3-Difluoropyrrolidin-1-yl)methyl)pyridin-3-yl)-3-(4-(thiophen-2-yl)-1H-imidazo[4,5-c]pyridin-2-yl)-1H-pyrazolo[3,4-c]pyridine]	≤ 9
13.7	O=C(Nc1cncc(-c2cc3c(-c4nc5c(-c6ccc(F)s6)nccc5[nH]4)n[nH]c3cn2)c1)C1CCC1 [Compound 358, N-(5-(3-(4-(5-Fluorothiophen-2-yl)-1H-imidazo[4,5-c]pyridin-2-yl)-1H-pyrazolo[3,4-c]pyridin-5-yl)pyridin-3-yl)cyclobutanecarboxamide]	40
